According to PubChem BioAssay (NCI):
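A five-concentration, 48-hour dose response in 96-well plates underlies each endpoint, interpolated linearly between surrounding concentrations. GI50 = concentration required for 50% inhibition of growth. At the TGI there is no net growth.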

Columns and labels:
Test in all cases: NCI-60 cell line screen, 48 h
MOLT-4 leukemia = system: MOLT-4 leukemia
SW-620 colon = system: SW-620 colon
SNB-75 CNS = system: SNB-75 CNS
DU-145 prostate = system: DU-145 prostate
HOP-62 NSCLC = system: HOP-62 NSCLC
HL-60(TB) leukemia = system: HL-60(TB) leukemia
K-562 leukemia = system: K-562 leukemia
COLO 205 colon = system: COLO 205 colon
A498 renal = system: A498 renal
NCI-H460 lung = system: NCI-H460 lung

SMILES | TGI (MOLT-4 leukemia) | TGI (SW-620 colon) | TGI (SNB-75 CNS) | TGI (DU-145 prostate) | TGI (HOP-62 NSCLC) | TGI (HL-60(TB) leukemia) | TGI (K-562 leukemia) | TGI (COLO 205 colon) | TGI (A498 renal) | TGI (NCI-H460 lung) | GI50 (MOLT-4 leukemia) | GI50 (SW-620 colon) | GI50 (SNB-75 CNS) | GI50 (DU-145 prostate) | GI50 (HOP-62 NSCLC) | GI50 (HL-60(TB) leukemia) | GI50 (K-562 leukemia) | GI50 (COLO 205 colon) | GI50 (A498 renal) | GI50 (NCI-H460 lung)
C=C(C)COc1ccc2c(c1)CCC1C2CCC2(C)C(=O)/C(=N/O)CC12 (stereo not given) | 6.05 µM | 9.94 µM | 11.9 µM | 7.93 µM | 21.2 µM | 5.92 µM | 9.96 µM | 14.4 µM | 24.3 µM | 3.14 µM | – | – | – | – | – | – | – | – | – | –
NC(=O)c1c[nH]c2ncnc(N)c12 | > 100 µM | > 100 µM | 59.3 µM | > 100 µM | > 100 µM | > 100 µM | > 100 µM | > 100 µM | 67.4 µM | > 100 µM | 32.9 µM | 27.1 µM | 13.3 µM | 44.6 µM | 53.3 µM | 32.3 µM | 93.9 µM | 27 µM | 22.9 µM | 45.1 µM
